Measurements reported in article PMC8725837, “2-Arylquinolines as novel anticancer agents with dual EGFR/FAK kinase inhibitory activity: synthesis, biological evaluation, and molecular modelling insights” (Journal of Enzyme Inhibition and Medicinal Chemistry, 2021).

Tests used:
[1] = test system: HCT-116 colorectal cancer cell line; assay: MTT antiproliferative assay, HCT-116; conditions: for GI% HCT-116: 10 µM, 24 h, MTT; for IC50: Homo sapiens, HCT-116, 24 h, read-out: IC50 HCT-116 (half maximal growth inhibitory concentration)
[2] = test system: HeLa cervical cancer cell line; assay: MTT antiproliferative assay, HeLa; format: cell-based; conditions: 10 µM, 24 h
Description: (§1) At least, three independent experiments were performed.

[3] = target: T1, VEGFR-2 (Homo sapiens, UniProt P35968); assay: Z`-LYTE kinase profiling, VEGFR-2; format: biochemical
T1 construct: purchased Invitrogen/Life Technologies
T1 sequence (P35968 20-1356): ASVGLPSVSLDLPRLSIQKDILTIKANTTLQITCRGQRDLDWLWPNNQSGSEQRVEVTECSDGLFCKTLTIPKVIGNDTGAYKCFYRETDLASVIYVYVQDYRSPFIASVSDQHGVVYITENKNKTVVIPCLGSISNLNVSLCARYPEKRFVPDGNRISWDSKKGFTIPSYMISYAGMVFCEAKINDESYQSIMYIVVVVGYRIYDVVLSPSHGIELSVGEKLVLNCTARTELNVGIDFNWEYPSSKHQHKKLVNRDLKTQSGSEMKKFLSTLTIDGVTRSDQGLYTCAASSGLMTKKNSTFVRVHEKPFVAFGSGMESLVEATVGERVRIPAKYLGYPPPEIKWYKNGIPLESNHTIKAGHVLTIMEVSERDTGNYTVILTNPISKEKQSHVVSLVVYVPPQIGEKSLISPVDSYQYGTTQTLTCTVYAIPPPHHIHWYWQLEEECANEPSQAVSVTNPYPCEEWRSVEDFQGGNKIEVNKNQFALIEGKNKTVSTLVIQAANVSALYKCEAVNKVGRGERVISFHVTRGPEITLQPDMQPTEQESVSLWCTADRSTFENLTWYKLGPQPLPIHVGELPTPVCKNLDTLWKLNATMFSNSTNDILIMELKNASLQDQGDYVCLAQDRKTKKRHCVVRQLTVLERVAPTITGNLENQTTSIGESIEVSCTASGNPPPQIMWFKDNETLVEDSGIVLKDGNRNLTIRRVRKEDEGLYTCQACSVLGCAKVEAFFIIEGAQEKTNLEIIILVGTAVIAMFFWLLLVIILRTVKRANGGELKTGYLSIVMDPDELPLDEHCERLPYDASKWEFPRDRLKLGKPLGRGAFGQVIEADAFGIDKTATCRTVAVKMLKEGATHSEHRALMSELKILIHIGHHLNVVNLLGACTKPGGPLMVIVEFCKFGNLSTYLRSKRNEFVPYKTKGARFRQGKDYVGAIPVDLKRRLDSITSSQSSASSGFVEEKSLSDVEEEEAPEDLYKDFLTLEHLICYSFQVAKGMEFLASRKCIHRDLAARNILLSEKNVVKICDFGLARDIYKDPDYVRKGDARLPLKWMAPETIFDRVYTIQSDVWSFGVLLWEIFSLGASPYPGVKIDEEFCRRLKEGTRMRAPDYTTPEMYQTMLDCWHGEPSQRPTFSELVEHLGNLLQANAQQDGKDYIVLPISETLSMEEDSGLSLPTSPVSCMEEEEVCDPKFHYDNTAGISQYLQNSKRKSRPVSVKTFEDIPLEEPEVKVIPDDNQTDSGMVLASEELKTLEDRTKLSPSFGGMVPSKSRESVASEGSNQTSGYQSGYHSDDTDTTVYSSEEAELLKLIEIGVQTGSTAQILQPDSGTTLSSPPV

[4] = test system: MDMBA-231 breast cancer cell line; assay: MTT antiproliferative assay, MDMBA-231; format: cell-based; conditions: 10 µM, 24 h
Description: as §1

[5] = target: EGFR (Homo sapiens, UniProt P00533); assay: Z`-LYTE kinase inhibitory assay, EGFR
EGFR, sequence (P00533 25-1210): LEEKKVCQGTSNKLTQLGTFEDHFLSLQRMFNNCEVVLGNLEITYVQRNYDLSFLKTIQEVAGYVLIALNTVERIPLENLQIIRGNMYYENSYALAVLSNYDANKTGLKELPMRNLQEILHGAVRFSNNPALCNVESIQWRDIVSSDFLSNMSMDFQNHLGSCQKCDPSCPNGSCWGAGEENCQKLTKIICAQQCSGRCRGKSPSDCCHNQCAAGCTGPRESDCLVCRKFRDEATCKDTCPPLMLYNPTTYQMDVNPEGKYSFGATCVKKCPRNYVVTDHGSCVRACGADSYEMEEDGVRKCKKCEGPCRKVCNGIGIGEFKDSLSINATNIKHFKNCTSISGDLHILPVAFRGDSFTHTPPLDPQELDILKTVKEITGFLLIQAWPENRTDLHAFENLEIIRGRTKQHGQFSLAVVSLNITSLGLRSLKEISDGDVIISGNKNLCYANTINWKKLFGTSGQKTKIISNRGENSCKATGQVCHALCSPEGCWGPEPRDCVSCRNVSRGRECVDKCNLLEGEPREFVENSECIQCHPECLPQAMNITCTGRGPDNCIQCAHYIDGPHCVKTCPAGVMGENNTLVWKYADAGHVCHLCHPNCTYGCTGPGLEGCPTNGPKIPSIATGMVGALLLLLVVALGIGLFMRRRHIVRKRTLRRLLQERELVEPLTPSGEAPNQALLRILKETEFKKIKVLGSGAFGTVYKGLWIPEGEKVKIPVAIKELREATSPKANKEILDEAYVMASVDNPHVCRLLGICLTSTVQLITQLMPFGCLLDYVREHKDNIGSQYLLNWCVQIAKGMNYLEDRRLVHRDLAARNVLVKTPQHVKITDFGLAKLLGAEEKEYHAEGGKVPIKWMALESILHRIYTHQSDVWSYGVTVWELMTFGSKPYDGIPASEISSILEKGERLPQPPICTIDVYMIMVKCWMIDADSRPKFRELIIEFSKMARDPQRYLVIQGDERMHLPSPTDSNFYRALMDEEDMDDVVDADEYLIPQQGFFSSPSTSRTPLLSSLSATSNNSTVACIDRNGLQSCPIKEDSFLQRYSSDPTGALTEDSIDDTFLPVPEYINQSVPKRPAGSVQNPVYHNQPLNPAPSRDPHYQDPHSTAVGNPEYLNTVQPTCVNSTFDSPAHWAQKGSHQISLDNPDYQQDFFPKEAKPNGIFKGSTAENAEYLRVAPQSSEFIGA

[6] = target: T2, HER-2 (Homo sapiens, UniProt P04626); assay: Z`-LYTE kinase profiling, HER-2; format: biochemical
T2 construct: purchased Invitrogen/Life Technologies

[7] = target: T3, IGF-1R (Homo sapiens, UniProt P08069); assay: Z`-LYTE kinase profiling, IGF-1R; format: biochemical
T3 construct: purchased Invitrogen/Life Technologies

[8] = target: T4, BTK (Homo sapiens, UniProt Q06187); assay: Z`-LYTE kinase profiling, BTK; format: biochemical
T4 construct: purchased Invitrogen/Life Technologies
T4 sequence (Q06187 whole entry): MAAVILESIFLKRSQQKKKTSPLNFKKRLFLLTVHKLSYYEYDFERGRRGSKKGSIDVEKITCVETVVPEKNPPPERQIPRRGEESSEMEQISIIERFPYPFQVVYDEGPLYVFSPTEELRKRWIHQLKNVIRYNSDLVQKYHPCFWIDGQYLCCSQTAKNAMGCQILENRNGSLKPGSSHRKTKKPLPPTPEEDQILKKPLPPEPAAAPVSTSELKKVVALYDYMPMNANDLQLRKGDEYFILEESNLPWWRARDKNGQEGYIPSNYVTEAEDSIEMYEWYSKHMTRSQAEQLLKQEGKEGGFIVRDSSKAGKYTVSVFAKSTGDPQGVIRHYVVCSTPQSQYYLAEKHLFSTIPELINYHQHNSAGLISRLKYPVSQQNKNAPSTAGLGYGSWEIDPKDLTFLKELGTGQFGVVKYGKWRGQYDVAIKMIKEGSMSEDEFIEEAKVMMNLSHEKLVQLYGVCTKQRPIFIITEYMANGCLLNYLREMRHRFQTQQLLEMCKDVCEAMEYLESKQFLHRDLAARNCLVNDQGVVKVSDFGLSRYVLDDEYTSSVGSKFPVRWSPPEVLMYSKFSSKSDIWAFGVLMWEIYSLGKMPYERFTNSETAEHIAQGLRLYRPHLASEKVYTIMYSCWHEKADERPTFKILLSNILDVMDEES

[9] = target: T5, FRK (Homo sapiens, UniProt P42685); assay: Z`-LYTE kinase profiling, FRK; format: biochemical
T5 construct: purchased Invitrogen/Life Technologies

[10] = test system: MCF-7 breast cancer cell line; assay: MTT antiproliferative assay, MCF-7; format: cell-based; conditions: 10 µM, 24 h
Description: as §1

[11] = target: T6, c-Src (Homo sapiens, UniProt P12931); assay: Z`-LYTE kinase profiling, c-Src; format: biochemical
T6 construct: purchased Invitrogen/Life Technologies
T6 sequence (P12931 whole entry): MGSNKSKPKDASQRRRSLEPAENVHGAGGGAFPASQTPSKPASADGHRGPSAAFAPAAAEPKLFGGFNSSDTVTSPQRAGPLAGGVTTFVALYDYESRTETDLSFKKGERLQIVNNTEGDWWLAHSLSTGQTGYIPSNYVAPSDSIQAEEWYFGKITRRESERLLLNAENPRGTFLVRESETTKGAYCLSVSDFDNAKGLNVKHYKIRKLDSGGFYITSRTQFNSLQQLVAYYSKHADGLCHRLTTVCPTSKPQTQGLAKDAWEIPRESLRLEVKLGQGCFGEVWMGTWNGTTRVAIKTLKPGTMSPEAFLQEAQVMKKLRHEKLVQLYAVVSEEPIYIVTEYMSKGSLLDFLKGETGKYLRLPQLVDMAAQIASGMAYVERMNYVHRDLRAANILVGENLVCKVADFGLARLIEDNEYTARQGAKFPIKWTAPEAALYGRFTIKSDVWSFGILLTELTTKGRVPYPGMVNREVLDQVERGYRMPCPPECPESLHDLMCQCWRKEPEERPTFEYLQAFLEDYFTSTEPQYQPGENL

[12] = target: FAK (Homo sapiens, UniProt Q05397); assay: Z`-LYTE kinase inhibitory assay, FAK
FAK, sequence (Q05397 whole entry): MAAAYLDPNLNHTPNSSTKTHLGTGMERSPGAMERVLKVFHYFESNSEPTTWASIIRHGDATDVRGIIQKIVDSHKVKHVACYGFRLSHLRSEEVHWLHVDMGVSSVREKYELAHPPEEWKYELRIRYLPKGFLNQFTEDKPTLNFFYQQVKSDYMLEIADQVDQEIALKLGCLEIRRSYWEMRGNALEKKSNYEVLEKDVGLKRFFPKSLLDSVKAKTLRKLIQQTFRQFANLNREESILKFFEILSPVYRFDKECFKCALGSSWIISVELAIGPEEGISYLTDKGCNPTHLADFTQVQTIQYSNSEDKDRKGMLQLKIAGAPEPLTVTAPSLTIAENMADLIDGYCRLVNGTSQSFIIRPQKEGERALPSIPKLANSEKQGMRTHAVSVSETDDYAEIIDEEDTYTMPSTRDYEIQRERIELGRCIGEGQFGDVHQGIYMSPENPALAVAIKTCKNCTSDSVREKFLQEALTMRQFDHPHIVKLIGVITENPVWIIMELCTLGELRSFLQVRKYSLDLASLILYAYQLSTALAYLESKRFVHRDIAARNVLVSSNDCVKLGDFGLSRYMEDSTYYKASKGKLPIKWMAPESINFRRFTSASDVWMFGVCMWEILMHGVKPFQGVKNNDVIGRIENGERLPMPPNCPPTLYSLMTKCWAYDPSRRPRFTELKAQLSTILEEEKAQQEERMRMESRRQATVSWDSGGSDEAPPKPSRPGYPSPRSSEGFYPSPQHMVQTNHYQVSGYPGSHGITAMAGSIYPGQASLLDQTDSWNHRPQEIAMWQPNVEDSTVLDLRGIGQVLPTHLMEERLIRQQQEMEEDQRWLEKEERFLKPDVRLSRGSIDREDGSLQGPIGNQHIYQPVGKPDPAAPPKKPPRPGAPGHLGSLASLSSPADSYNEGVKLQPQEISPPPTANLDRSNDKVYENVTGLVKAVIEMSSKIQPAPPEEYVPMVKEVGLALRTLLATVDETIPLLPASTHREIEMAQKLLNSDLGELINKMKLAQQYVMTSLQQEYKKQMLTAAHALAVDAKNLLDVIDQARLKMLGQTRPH

[13] = target: T7, recombinant human TOP1 (Homo sapiens, UniProt P11387); assay: Topoisomerase I-mediated DNA cleavage assay; conditions: tested at 0.1, 1, 10, 100 µM
T7 sequence (P11387 1-765): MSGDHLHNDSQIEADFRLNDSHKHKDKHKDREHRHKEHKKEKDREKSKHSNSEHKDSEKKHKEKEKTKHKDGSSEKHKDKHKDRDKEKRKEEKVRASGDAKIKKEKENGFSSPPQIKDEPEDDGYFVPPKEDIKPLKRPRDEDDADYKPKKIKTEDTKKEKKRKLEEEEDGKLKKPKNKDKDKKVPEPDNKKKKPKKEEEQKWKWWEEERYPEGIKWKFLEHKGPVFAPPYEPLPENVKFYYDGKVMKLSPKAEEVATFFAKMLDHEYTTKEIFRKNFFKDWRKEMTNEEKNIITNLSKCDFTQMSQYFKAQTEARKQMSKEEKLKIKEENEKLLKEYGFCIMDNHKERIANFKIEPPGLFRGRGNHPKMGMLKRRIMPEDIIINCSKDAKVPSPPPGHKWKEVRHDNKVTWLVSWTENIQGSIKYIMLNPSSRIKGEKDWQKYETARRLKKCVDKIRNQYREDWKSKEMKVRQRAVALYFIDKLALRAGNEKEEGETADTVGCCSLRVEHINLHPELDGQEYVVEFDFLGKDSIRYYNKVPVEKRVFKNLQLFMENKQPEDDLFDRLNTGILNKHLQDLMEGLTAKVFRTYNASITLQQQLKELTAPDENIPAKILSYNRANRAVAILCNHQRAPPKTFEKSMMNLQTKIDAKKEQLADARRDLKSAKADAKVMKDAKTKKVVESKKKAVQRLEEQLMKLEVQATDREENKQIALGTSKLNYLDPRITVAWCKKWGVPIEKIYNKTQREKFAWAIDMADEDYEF

[14] = target: T8, VEGFR-1 (Homo sapiens, UniProt P17948); assay: Z`-LYTE kinase profiling, VEGFR-1; format: biochemical
T8 construct: purchased Invitrogen/Life Technologies

[15] = test system: DLD-1 colorectal cancer cell line; assay: MTT antiproliferative assay, DLD-1; conditions: for GI% DLD1: 10 µM, 24 h, MTT; for IC50: Homo sapiens, DLD-1, 24 h, read-out: IC50 DLD1 (half maximal growth inhibitory concentration)

| Compound | GI% HCT-116 [1] [%] | IC50 [1] [nM] | melting point [°C] | GI% Hela [2] [%] | IC50 [3] [nM] | GI% MDMBA-231 [4] [%] | IC50 [5] [nM] | IC50 [6] [nM] | IC50 [7] [nM] | IC50 [8] [nM] | IC50 [9] [nM] | GI% MCF-7 [10] [%] | IC50 [11] [nM] | IC50 [12] [nM] | TOP1 inhibitory activity (semiquantitative score relative to 1 µM CPT) [13] | IC50 [14] [nM] | GI% DLD1 [15] [%] | IC50 [15] [nM] |
| --- | --- | --- | --- | --- | --- | --- | --- | --- | --- | --- | --- | --- | --- | --- | --- | --- | --- | --- |
| COc1cc2nc(-c3ccc(C)cc3)cc(OCCCN3CCN(C)CC3)c2cc1OC [6k, 6,7-dimethoxy-4–(3-(4-methylpiperazin-1-yl)propoxy)-2-(p-tolyl)quinoline] | 22.15 | > 100000 | 128 to 130 | 11.32 | 5960 | 8.64 | 410 ± 12.7 | 1350 | 2400 | 2760 | 3170 | 17.49 | 6450 | 158 ± 8.73 | 0 | 5040 | 18.69 | > 100000 |
| COc1cc2nc(-c3ccc(C)cc3)cc(OCCCNC3CCCCC3)c2cc1OC [6l, N-(3-((6,7-dimethoxy-2-(p-tolyl)quinolin-4-yl)oxy)propyl)cyclohexanamine] | 69.15 | 8110 ± 1040 | 126 to 128 | 34.29 | 2400 | 38.36 | 34.9 ± 3.76 | 756 | 1820 | 1610 | 743 | 44.71 | 1920 | 26.4 ± 2.81 | −/+ (−/+: 0–25% 1 µM CPT) | 346 | 75.34 | 6340 ± 520 |
| COc1cc2nc(-c3ccc(C)cc3)cc(OCCCNC3CCN(C)CC3)c2cc1OC [6m, N-(3-((6,7-dimethoxy-2-(p-tolyl)quinolin-4-yl)oxy)propyl)-1-methylpiperidin-4-amine] | 24.31 | 43100 ± 1050 | 66 to 68 | 30.19 | 2830 | 8.16 | 154 ± 12.8 | 332 | 2810 | 2460 | 2760 | 22.09 | 980 | 172 ± 13.7 | −/+ (−/+: 0–25% 1 µM CPT) | 865 | 22.16 | 54200 ± 2110 |
| COc1cc2nc(-c3ccc(C)cc3)cc(OCCCNCC3CCCO3)c2cc1OC (stereo not drawn) [6n, 3-((6,7-dimethoxy-2-(p-tolyl)quinolin-4-yl)oxy)-N-((tetrahydrofuran-2-yl)methyl)propa-n-1-amine] | 64.26 | 8690 ± 940 | 60 to 62 | 71.12 | 1190 | 14.39 | 41.8 ± 2.34 | 1390 | 2810 | 819 | 2520 | 58.15 | 82.7 | 44.4 ± 2.94 | 0 | 556 | 81.34 | 6110 ± 1800 |
| COc1cc2nc(-c3ccc(C)cc3)cc(OCCCn3ccnc3)c2cc1OC [6o, 4-(3-(1H-imidazol-1-yl)propoxy)-6,7-dimethoxy-2-(p-tolyl)quinoline] | 1.08 | > 100000 | 203 to 205 | 9.16 | 3620 | 8.64 | 256 ± 6.94 | 1380 | 408 | 3830 | 786 | 5.36 | 3490 | 205 ± 8.04 | 0 | 511 | 12.36 | > 100000 |
| COc1cc2nc(-c3ccc(-c4ccco4)cc3)cc(OCCCN3CCN(C)CC3)c2cc1OC [8a, 2-(4-(furan-2-yl)phenyl)-6,7-dimethoxy-4-(3-(4-methylpiperazin-1-yl)propoxy)quinoline] | 1.02 | > 100000 | 135 to 137 | 11.78 | 6370 | 4.40 | 349 ± 14 | 989 | 1060 | 5600 | 846 | 7.22 | 4540 | 198 ± 12.3 | 0 | 648 | 5.15 | > 100000 |
| COc1cc2nc(-c3ccc(-c4cccs4)cc3)cc(OCCCN3CCN(C)CC3)c2cc1OC [8b, 6,7-dimethoxy-4–(3-(4-methylpiperazin-1-yl)propoxy)-2–(4-(thiophen-2-yl)phenyl)quinol-ine] | 52.10 | 9840 ± 680 | 155 to 157 | 50.81 | 8370 | 36.87 | 35.5 ± 1.5 | 1070 | 3900 | 2920 | 3920 | 74.90 | 7200 | 29.8 ± 2.37 | 0 | 6960 | 74.25 | 7340 ± 1220 |
